# According to ChEMBL document CHEMBL1131731, “Synthesis and evaluation of hapalosin and analogs as MDR-reversing agents” (Bioorg Med Chem Lett, 1999):
# Tests used:
# [1] = molecular target: ATP-dependent translocase ABCB1 (P-glycoprotein) (Homo sapiens, UniProt P08183); assay: (§1) Ratio of IC50 of cytotoxicity to the IC50 of MDR- reversal for P388/VMDRC.04 cells; format: functional, cell-based; details: mouse, P388/VMDRC.04 cells
# [2] = Evaluated for cytotoxicity using P388/VMDRC.04 cells (a subline of P388 murine leukemia cells expressing human recombinant human P-glycoprotein) in the absence of 10 nM vincristine
# [3] = molecular target: ATP-dependent translocase ABCB1 (Homo sapiens, UniProt P08183); assay: as §1; format: functional, cell-based; details: mouse
# Sequence of ATP-dependent translocase ABCB1 (P08183 whole entry): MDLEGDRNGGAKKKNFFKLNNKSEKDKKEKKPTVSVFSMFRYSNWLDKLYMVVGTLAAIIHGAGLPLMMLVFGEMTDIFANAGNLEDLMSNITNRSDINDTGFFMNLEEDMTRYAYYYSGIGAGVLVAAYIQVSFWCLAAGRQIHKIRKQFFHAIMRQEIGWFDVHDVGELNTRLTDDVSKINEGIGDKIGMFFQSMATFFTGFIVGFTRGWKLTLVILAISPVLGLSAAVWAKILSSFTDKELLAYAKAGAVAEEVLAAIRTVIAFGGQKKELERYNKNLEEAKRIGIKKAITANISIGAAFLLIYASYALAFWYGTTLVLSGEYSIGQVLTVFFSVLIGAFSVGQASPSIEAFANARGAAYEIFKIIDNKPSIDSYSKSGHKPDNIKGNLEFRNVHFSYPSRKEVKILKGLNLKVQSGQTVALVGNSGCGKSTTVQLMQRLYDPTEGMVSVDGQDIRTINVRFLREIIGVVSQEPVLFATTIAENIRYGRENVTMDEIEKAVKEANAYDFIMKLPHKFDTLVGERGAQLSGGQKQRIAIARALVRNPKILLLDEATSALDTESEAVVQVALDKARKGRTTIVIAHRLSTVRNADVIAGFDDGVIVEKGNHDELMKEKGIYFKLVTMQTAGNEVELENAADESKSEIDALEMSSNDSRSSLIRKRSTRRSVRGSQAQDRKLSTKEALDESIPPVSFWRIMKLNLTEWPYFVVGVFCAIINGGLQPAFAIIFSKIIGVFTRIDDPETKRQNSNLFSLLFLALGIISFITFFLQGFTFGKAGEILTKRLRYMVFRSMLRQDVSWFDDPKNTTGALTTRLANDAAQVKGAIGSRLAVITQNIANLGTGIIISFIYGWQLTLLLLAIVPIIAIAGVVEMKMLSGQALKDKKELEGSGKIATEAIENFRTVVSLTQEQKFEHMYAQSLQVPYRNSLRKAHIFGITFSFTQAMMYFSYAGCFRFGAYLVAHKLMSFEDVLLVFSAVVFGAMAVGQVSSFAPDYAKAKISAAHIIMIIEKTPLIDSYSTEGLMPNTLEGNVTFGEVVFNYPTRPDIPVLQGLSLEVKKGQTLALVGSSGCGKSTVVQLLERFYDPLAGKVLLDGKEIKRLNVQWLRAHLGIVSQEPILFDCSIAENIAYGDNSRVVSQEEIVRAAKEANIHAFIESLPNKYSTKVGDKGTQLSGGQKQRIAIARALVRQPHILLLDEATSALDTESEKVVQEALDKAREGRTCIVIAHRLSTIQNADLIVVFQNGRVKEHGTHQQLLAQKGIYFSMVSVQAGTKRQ
# Sequence of ATP-dependent translocase ABCB1 (P-glycoprotein) (P08183 whole entry): as above
SMILES,selectivity ratio [1],IC50 [2],Ratio [3]
CCCC[C@H]1OC(=O)C[C@H](OCOC)[C@H](Cc2ccccc2)N(C)C(=O)COC(=O)[C@H]1C,> 8.5,> 100 µM,–
CCCCCCC[C@H]1OC(=O)C[C@@H](OCOC)[C@H](Cc2ccccc2)N(C)C(=O)[C@H](C(C)C)OC(=O)[C@H]1C,5.7,34.9 µM,–
CCCCCCC[C@@H]1CC(=O)O[C@@H](C(C)C)C(=O)N(C)[C@@H](Cc2ccccc2)[C@H](O)CC(=O)O1,3.8,–,–
CCCCCCC[C@H]1OC(=O)C[C@H](O)[C@H](Cc2ccccc2)N(C)C(=O)[C@H](C(C)C)OC(=O)[C@H]1C [listing 1 of 2 here],5.4,–,–
CCCCCCC[C@H]1OC(=O)C[C@H](OCOC)[C@H](Cc2ccccc2)N(C)C(=O)[C@H](C(C)C)OC(=O)[C@H]1C (stereo in doubt; 14),7.5,–,–
COCO[C@H](CC(=O)OC)[C@H](Cc1ccccc1)N(C)C(=O)OCc1ccccc1,5.7,–,–
CCCCCCC[C@H]1OC(=O)CC[C@H](Cc2ccccc2)N(C)C(=O)[C@H](C(C)C)OC(=O)[C@H]1C,5.6,–,–
CCCCCCC[C@H]1OC(=O)C[C@H](O)[C@H](Cc2ccccc2)N(C)C(=O)C(C)(C)OC(=O)[C@H]1C,6.6,–,–
COCO[C@@H]1CC(=O)O[C@H](C)[C@H](C)C(=O)O[C@@H](C(C)C)C(=O)N(C)[C@H]1Cc1ccccc1,> 10,–,–
CCCCCCC[C@H]1OC(=O)C[C@@H](O)[C@H](Cc2ccccc2)N(C)C(=O)[C@H](C(C)C)OC(=O)[C@H]1C [HAPALOSIN],3,–,–
CCCC[C@H]1OC(=O)C[C@H](O)[C@H](Cc2ccccc2)N(C)C(=O)COC(=O)[C@H]1C,> 4.4,–,–
CCCCCCC[C@H]1OC(=O)C[C@@H](OCOC)[C@H](Cc2ccccc2)N(C)C(=O)[C@H](C)OC(=O)[C@H]1C,3.2,–,–
COCO[C@@H]1CC(=O)OC[C@H](C)C(=O)O[C@@H](C(C)C)C(=O)N(C)[C@H]1Cc1ccccc1,> 15.9,–,–
CC(C)[C@@H]1OC(=O)[C@@H](C)COC(=O)C[C@@H](O)[C@H](Cc2ccccc2)N(C)C1=O,> 7.5,> 100 µM,–
CCCCCCC[C@@H](O)[C@H](C)C(=O)OC,–,> 100 µM,–
CC(C)[C@@H]1OC(=O)[C@@H](C)[C@@H](C)OC(=O)C[C@@H](O)[C@H](Cc2ccccc2)N(C)C1=O,> 9,–,–
CCCCCCC[C@H]1OC(=O)C[C@@H](OCOC)[C@H](Cc2ccccc2)N(C)C(=O)COC(=O)[C@H]1C,6.5,–,–
COCO[C@H]1CC(=O)O[C@H](C)[C@H](C)C(=O)OCC(=O)N(C)[C@H]1Cc1ccccc1,> 2.3,–,–
CCCCCCC[C@H]1OC(=O)C[C@@H](O)[C@H](Cc2ccccc2)N(C)C(=O)[C@H](C)OC(=O)[C@H]1C,4.3,–,–
CCCCCCC[C@@H](O)[C@H](C)C(=O)O[C@H](C(=O)OC)C(C)C,> 5.2,–,–
COC(=O)C[C@@H](O)[C@H](Cc1ccccc1)N(C)C(=O)OCc1ccccc1,5.2,–,–
CCCCCCC[C@H]1OC(=O)C[C@H](O)[C@H](Cc2ccccc2)N(C)C(=O)[C@H](C(C)C)OC(=O)[C@H]1C [listing 2 of 2 here],7.4,–,–
CCCCCCC[C@H]1OC(=O)C[C@H](OCOC)[C@H](Cc2ccccc2)N(C)C(=O)[C@H](C(C)C)OC(=O)[C@H]1C (stereo in doubt; 22),–,–,6.2
CCCCCCC[C@@H]1CC(=O)O[C@@H](C(C)C)C(=O)N(C)[C@@H](Cc2ccccc2)[C@H](OCOC)CC(=O)O1,5.7,–,–
CCCCCCC[C@H]1OC(=O)C[C@H](OCOC)[C@H](Cc2ccccc2)N(C)C(=O)C(C)(C)OC(=O)[C@H]1C,3.5,–,–
CCCCCCC[C@H]1OC(=O)C[C@@H](O)[C@H](Cc2ccccc2)N(C)C(=O)COC(=O)[C@H]1C,3.8,–,–
